Experimental data published in patent publication US8378104B2 (OSI Pharmaceuticals, LLC, priority 2010, dated 2013).
pIC50: −log10 of the molar value. Where a name gives a salt, the structure may show the parent alone. Read-outs that look alike come from different tables or passages of the source.

What was measured:
p-p38 in HCT-116 cells = assay: Phospho-p38 Meso Scale ELISA assay, TNFα-stimulated HCT-116 cells; assay type: cell-based; conditions: Homo sapiens, read-out: mean HCT-116 p-p38 ELISA IC50 (Col. C)
Experimental: Detailed below are ELISA assays for pJNK and p38, and a TAK1 biochemical assay. […] In Table 1, Col.
• 1. Plate HCT-116 cells at 25,000 per well in 100 uL in 96 well clear dishes in normal growth medium. Day 2: • 1. Aspirate medium and replace with 90 μl reduced serum growth medium (1% FCS), incubate for 2 hours at 37° C. • 2. Make drugs at 10× in reduced serum medium and add 10 uL per well. • 3. Incubate at 37° C. for 4 hrs. • 4. Bring capture plates to room temperature. • 5. Block with 150 μl Blocking Solution (provided with kit) (600 mg Blocker A into 20 mL 1× Wash Buffer per plate) at room temperature with shaking. • 6. Wash plates 4× with 200 μl 1× wash buffer (10× provided with kit) before transferring lysates. • 7. Dilute TNFα to […] in reduced serum medium (this makes a 10× working stock). • 8. Add 10 μl TNFα to all wells except negative control wells, final concentration is 10 ng/mL. • 9. Incubate at 37° C. for 10 minutes. • 10. Remove medium by flicking into sink • 11. Wash cells with 100 uL ice cold PBS. • 12. Remove PBS by flicking into sink and patting on paper towels. • 13. Lyse cells in 50 μl ice cold 1× Complete Lysis Buffer plus Phosphatase and Protease inhibitors (all provided with kit) (10 mL Tris Lysis Buffer+200 μl Protease inhibitor solution+100 μl Phosphatase inhibitor I+100 μl Phosphatase inhibitor II). • 14. Incubate with shaking at 4° C. for 30 minutes. • 15. Transfer 45 μl to capture plate, cover with adhesive cover, and incubate at 4° C. over night with shaking. • Day 3: • 1. Wash plates 4× with 200 μl 1× wash buffer (10× provided with kit). • 2. […] Incubate at room temperature with shaking for 1 hour. • 4. Wash 4× with 200 μl 1× Wash Buffer. • 5. […] Read on Sector Imager. Phospho-p38 Meso Scale ELISA Assay Day 1: • 1. Plate HCT-116 cells at 25,000 per well in 100 uL in 96 well clear dishes in normal growth medium. zday 2: • 1. Aspirate medium and replace with 90 μl reduced serum growth medium (1% FCS), incubate for 2 hours at 37° C. • 2. Make drugs at 10× in reduced serum medium and add 10 uL per well. • 3. Incubate at 37° C. for 4 hrs. • 4. Bring capture plates to room temperature. • 5. Block with 150 μl Blocking Solution (provided with kit) (600 mg Blocker A into 20 mL 1× Wash Buffer per plate) at room temperature with shaking. • 6. Wash plates 4× with 200 μl 1× wash buffer (10× provided with kit) before transferring lysates. • 7. Dilute TNFα to […] in reduced serum medium (this makes a 10× working stock). • 8. Add 10 μl TNFα to all wells except negative control wells, final concentration is 10 ng/mL. • 9. Incubate at 37° C. for 10 minutes. • 10. Remove medium by flicking into sink • 11. Wash cells with 100 uL ice cold PBS. • 12. Remove PBS by flicking into sink and patting on paper towels. • 13. Lyse cells in 50 μl ice cold 1× Complete Lysis Buffer plus phosphatase and protease inhibitors (all provided with kit) (10 mL Tris Lysis Buffer+200 μl Protease inhibitor solution+100 μl Phosphatase inhibitor I+100 μl Phosphatase inhibitor II). • 14. Incubate with shaking at 4° C. for 30 minutes. • 15. Dilute lysates before transferring to capture plate with 100 μl Complete p38 Lysate • Dilution Buffer (provided with kit) (10 mL of Diluent 20±200 μl Protease inhibitor solution+100 μl Phosphatase inhibitor I+100 μl Phosphatase inhibitor II). • 16. Transfer 50 μl of diluted lysates to capture plate, cover with adhesive cover, and incubate at 4° C. over night with shaking. Day 3: • 1. Wash plates 4× with 200 μl 1× wash buffer (10× provided with kit). • 2. […] Incubate at room temperature with shaking for 1 hour. • 4. Wash 4× with 200 μl 1× Wash Buffer. • 5. […] Read on Sector Imager. TAK1 Biochemical Assay

TAK1-TAB1 fusion protein = target: T1, TAK1-TAB1 fusion protein (Homo sapiens, UniProt O43318); assay: TAK1 biochemical assay (AlphaScreen, GST-MAP2K7 substrate)
T1 construct: purchased Carna
T1 sequence (O43318 with tags, fused parts or gaps limits assumed): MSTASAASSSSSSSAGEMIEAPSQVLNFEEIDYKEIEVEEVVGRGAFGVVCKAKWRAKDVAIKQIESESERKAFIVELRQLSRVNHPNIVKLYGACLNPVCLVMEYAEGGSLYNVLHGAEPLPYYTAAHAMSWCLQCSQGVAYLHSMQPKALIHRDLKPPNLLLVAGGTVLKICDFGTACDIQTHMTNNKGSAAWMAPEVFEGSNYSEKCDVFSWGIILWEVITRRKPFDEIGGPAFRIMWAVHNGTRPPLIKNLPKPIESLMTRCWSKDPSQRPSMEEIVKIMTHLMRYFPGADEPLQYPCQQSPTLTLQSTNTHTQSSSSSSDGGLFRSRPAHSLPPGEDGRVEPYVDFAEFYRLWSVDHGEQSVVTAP

pJNK in HCT-116 cells = assay: Phospho-JNK (Thr183/Tyr185) Meso Scale ELISA assay, TNFα-stimulated HCT-116 cells; assay type: cell-based; conditions: Homo sapiens, read-out: mean HCT-116 pJNK ELISA IC50 (Col. B)
Outline: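 HCT-116 cells in 1% FCS medium were pretreated with compound for 4 hrs at 37° C, then stimulated with TNFα at 10 ng/mL final for 10 minutes. Lysates were taken in ice-cold lysis buffer with phosphatase and protease inhibitors, and phospho-JNK (Thr183/Tyr185) was measured by Meso Scale ELISA.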

[1] = TAK1-TAB1 fusion protein, GST-MAP2K7 substrate, read-out: mean TAK1 IC50 (Col. A)

Compound	pIC50 (p-p38 in HCT-116 cells)	pIC50 (TAK1-TAB1 fusion protein; [1])	pIC50 (pJNK in HCT-116 cells)	pIC50 (TAK1-TAB1 fusion protein)
Nc1ncc(-c2cnn(C3CC(=O)C3)c2)c2cc(-c3csc4cnccc34)oc12 [Example 315, 3-[4-(7-amino-2-thieno[2,3-c]pyridin-3-yl-furo[2,3-c]pyridin-4-yl)-pyrazol-1-yl]-cyclobutanone]	6.00 to 7.00	6.00 to 7.00	6.00 to 7.00	
CC(=O)N1CCC(n2cc(-c3cnc(N)c4oc(-c5c(C)n[nH]c5C)cc34)cn2)CC1 [Example 180, 1-(4-{4-[7-amino-2-(3,5-dimethyl-1H-pyrazol-4-yl)furo[2,3-c]pyridin-4-yl]-1H-pyrazol-1-yl}piperidin-1-yl)ethanone]	5.00 to 6.00	6.00 to 7.00	5.00 to 6.00	
CC(=O)N1CCC(n2cc(-c3cnc(N)c4oc(-c5ccc6ncn(C)c6c5)cc34)cn2)CC1 [Example 111, 1-(4-{4-[7-amino-2-(1-methyl-1H-benzimidazol-6-yl)furo[2,3-c]pyridin-4-yl]-1H-pyrazol-1-yl}piperidin-1-yl)ethanone]	< 5.00	6.00 to 7.00	5.00 to 6.00	
CC(=O)N1CCC(n2cc(-c3cnc(N)c4oc(-c5cccc6c5OC(F)(F)O6)cc34)cn2)CC1 [Example 191, 1-(4-{4-[7-amino-2-(2,2-difluoro-1,3-benzodioxol-4-yl)furo[2,3-c]pyridin-4-yl]-1H-pyrazol-1-yl}piperidin-1-yl)ethanone]	6.00 to 7.00	6.00 to 7.00	6.00 to 7.00	
CC(=O)N1CCC(n2cc(-c3cnc(N)c4oc(-c5ccc6c(cnn6C)c5)cc34)cn2)CC1 [Example 146, 1-(4-{4-[7-amino-2-(1-methyl-1H-indazol-5-yl)furo[2,3-c]pyridin-4-yl]-1H-pyrazol-1-yl}piperidin-1-yl)ethanone]	5.00 to 6.00	5.00 to 6.00	6.00 to 7.00	
CC(=O)N1CCC(n2cc(-c3cnc(N)c4oc(-c5ccc6[nH]nc(C#N)c6c5)cc34)cn2)CC1 [Example 236, 5-{4-[1-(1-acetylpiperidin-4-yl)-1H-pyrazol-4-yl]-7-aminofuro[2,3-c]pyridin-2-yl}-1H-indazole-3-carbonitrile]	< 5.00	6.00 to 7.00	5.00 to 6.00	
CC(=O)N1CCC(n2cc(-c3cnc(N)c4oc(-c5ccc6nn(C)cc6c5)cc34)cn2)CC1 [Example 145, 1-(4-{4-[7-amino-2-(2-methyl-2H-indazol-5-yl)furo[2,3-c]pyridin-4-yl]-1H-pyrazol-1-yl}piperidin-1-yl)ethanone]	5.00 to 6.00	< 5.00	5.00 to 6.00	
CC(=O)N1CCC(n2cc(-c3cnc(N)c4oc(-c5ccc(O)cc5)cc34)cn2)CC1 [Example 120, 1-(4-{4-[7-amino-2-(4-hydroxyphenyl)furo[2,3-c]pyridin-4-yl]-1H-pyrazol-1-yl}piperidin-1-yl)ethanone]	6.00 to 7.00	6.00 to 7.00	6.00 to 7.00	
Nc1ncc(-c2cnn(C3CCNCC3)c2)c2cc(-c3ccc4[nH]ccc4c3)oc12 [Example 38, 2-(1H-indol-5-yl)-4-[1-(piperidin-4-yl)-1H-pyrazol-4-yl]furo[2,3-c]pyridin-7-amine]	5.00 to 6.00	6.00 to 7.00	5.00 to 6.00	
Nc1ncc(-c2cnn(C3CNC3)c2)c2cc(-c3csc4cnccc34)oc12 [Example 314, 4-(1-azetidin-3-yl-1H-pyrazol-4-yl)-2-thieno[2,3-c]pyridin-3-yl-furo[2,3-c]pyridin-7-ylamine]	6.00 to 7.00	> 7.00	5.00 to 6.00	
CC(=O)N1CCC(n2cc(-c3cnc(N)c4oc(-c5csc6cnccc56)cc34)cn2)CC1 [Example 189, 1-(4-{4-[7-amino-2-(thieno[2,3-c]pyridin-3-yl)furo[2,3-c]pyridin-4-yl]-1H-pyrazol-1-yl}piperidin-1-yl)ethanone]	6.00 to 7.00	> 7.00	> 7.00	
CC(=O)N1CCC(n2cc(-c3cnc(N)c4oc(-c5cnc6[nH]ccc6c5)cc34)cn2)CC1 [Example 155, 1-(4-{4-[7-amino-2-(1H-pyrrolo[2,3-b]pyridin-5-yl)furo[2,3-c]pyridin-4-yl]-1H-pyrazol-1-yl}piperidin-1-yl)ethanone]	5.00 to 6.00	6.00 to 7.00	6.00 to 7.00	
CC(C)(C)OC(=O)N1CCC(n2cc(-c3cnc(N)c4oc(-c5cccc6cnsc56)cc34)cn2)CC1 [Example 302, 4-[4-(7-amino-2-benzo[d]isothiazol-7-yl-furo[2,3-c]pyridin-4-yl)-pyrazol-1-yl]-piperidine-1-carboxylic acid tert-butyl ester]	5.00 to 6.00	6.00 to 7.00	6.00 to 7.00	
Nc1ncc(-c2cnn(C3CCNCC3)c2)c2cc(-c3ccc4[nH]ncc4c3)oc12 [Example 18, 2-(1H-indazol-5-yl)-4-[1-(piperidin-4-yl)-1H-pyrazol-4-yl]furo[2,3-c]pyridin-7-amine hydrochloride]	6.00 to 7.00	> 7.00	6.00 to 7.00	
Cn1cc(-c2cnc(N)c3oc(-c4csc5cnccc45)cc23)cn1 [Example 290, 4-(1-methyl-1H-pyrazol-4-yl)-2-thieno[2,3-c]pyridin-3-yl-furo[2,3-c]pyridin-7-ylamine]	6.00 to 7.00		6.00 to 7.00	6.00 to 7.00
Nc1ncc(-c2cnn(C3CCN(CC(F)(F)F)CC3)c2)c2cc(-c3cccc4cnccc34)oc12 [Example 84, 2-(isoquinolin-5-yl)-4-{1-[1-(2,2,2-trifluoroethyl)piperidin-4-yl]-1H-pyrazol-4-yl}furo[2,3-c]pyridin-7-amine]	6.00 to 7.00	5.00 to 6.00	6.00 to 7.00	
CC1(C)OC[C@@H](Cn2cc(-c3cnc(N)c4oc(-c5csc6cnccc56)cc34)cn2)O1 [Example 297, 4-[1-((R)-2,2-dimethyl-[1,3]dioxolan-4-ylmethyl)-1H-pyrazol-4-yl]-2-thieno[2,3-c]pyridin-3-yl-furo[2,3-c]pyridin-7-ylamine]	5.00 to 6.00	6.00 to 7.00	6.00 to 7.00	
Cc1sc2cnccc2c1-c1cc2c(-c3cnn([C@H]4CC[C@H](O)CC4)c3)cnc(N)c2o1 [Example 252, trans-4-{4-[7-amino-2-(2-methylthieno[2,3-c]pyridin-3-yl)furo[2,3-c]pyridin-4-yl]-1H-pyrazol-1-yl}cyclohexanol trifluoroacetate]	6.00 to 7.00	6.00 to 7.00		
